Data reported in patent publication US20070128217A1 (priority 2003, published 2007).

Assays:
[1] = system: recombinant human anti-SARS-CoV antibody 03-018; format: binding; set-up: Binding of antibody 03-018 to linear peptides of the N protein of SARS-CoV Urbani / Binding of antibody 03-018 to looped/cyclic peptides of the N protein of SARS-CoV Urbani: unit not given here
[2] = system: control sera (pooled serum of ten healthy LUMC hospital workers; commercial negative donor pooled serum from the Dutch bloodbank); format: binding, human; set-up: Binding of Control serum LUMC to linear peptides / Binding of Control serum Blood-bank to linear peptides / Binding of Control serum LUMC to looped peptides / Binding of Control Serum Blood-Bank to Looped peptides / Binding of Control serum LUMC to linear peptides of the protein M of SARS-CoV Urbani / Binding of Control serum Blood-bank to linear peptides of the protein M of SARS-CoV Urbani / Binding of Control serum LUMC to looped peptides of the protein M of SARS-CoV Urbani / Binding of Control Serum Blood-Bank to Looped peptides of the protein M of SARS-CoV Urbani: unit not given here
[3] = system: antibodies in sera from SARS patients (sera 1a, 1b, 2, 6, 37, 62, London, SARS-yellow, SARS-green); format: binding, human; set-up: Binding of serum 6 to linear peptides of protein X1 of SARS-CoV Urbani / Binding of serum 37 to linear peptides of protein X1 of SARS-CoV Urbani / Binding of serum 6 to looped/cyclic peptide (PEPSCAN-ELISA) / Binding of serum 37 to looped/cyclic peptide (PEPSCAN-ELISA) / Binding of serum 37 to looped/cyclic peptides of protein X1 of SARS-CoV Urbani / Binding of serum 6 to linear peptides of protein X2 / Binding of serum 37 to linear peptides of protein X2 / Binding of serum 37 to looped/cyclic peptides of protein X2 of SARS-CoV Urbani / Binding of serum 6 to linear peptides of protein M of SARS-CoV Urbani / Binding of serum 37 to linear peptides of protein M of SARS-CoV Urbani / Binding of serum 6 to looped/cyclic peptides of protein M of SARS-CoV Urbani / Binding of serum 37 to looped/cyclic peptides of protein M of SARS-CoV Urbani / Binding of serum 6 to linear peptides of protein X3 of SARS-CoV Urbani / Binding of serum 37 to linear peptides of protein X3 of SARS-CoV Urbani / Binding of serum 37 to looped/cyclic peptides of protein X3 of SARS-CoV Urbani / Binding of serum 6 to linear peptides of protein X4 of SARS-CoV Urbani / Binding of serum 37 to linear peptides of protein X4 of SARS-CoV Urbani / Binding of serum 37 to looped/cyclic peptides of protein X4 of SARS-CoV Urbani / Binding of serum 6 to linear peptides of protein X5 of SARS-CoV Urbani / Binding of serum 37 to linear peptides of protein X5 of SARS-CoV Urbani / Binding of serum 37 to looped/cyclic peptides of protein X5 of SARS-CoV Urbani / Binding of serum 6 to linear peptides of protein N of SARS-CoV Urbani / Binding of serum 37 to linear peptides of protein N of SARS-CoV Urbani / Binding of serum 6 to linear peptide (PEPSCAN-ELISA) / Binding of serum 1a to looped/cyclic peptides of protein N of SARS-CoV Urbani / Binding of serum 1b to looped/cyclic peptides of protein N of SARS-CoV Urbani / Binding of serum 2 to looped/cyclic peptides of protein N of SARS-CoV Urbani / Binding of serum 6 to looped/cyclic peptides of protein N of SARS-CoV Urbani / Binding of serum 37 to looped/cyclic peptides of protein N of SARS-CoV Urbani / Binding of serum 62 to looped/cyclic peptides of protein N of SARS-CoV Urbani / Binding of serum London to looped/cyclic peptides of protein N of SARS-CoV Urbani / Binding of serum SARS-green to looped/cyclic peptides of protein N of SARS-CoV Urbani: unit not given here
[4] = system: rabbit serum obtained by immunizing a rabbit with the SARS-CoV strain Frankfurt 1; format: binding; set-up: Binding of a rabbit serum to linear peptides / Binding of a rabbit serum to looped peptides / Rabbit serum linear peptides / Rabbit serum looped peptides / Binding of a rabbit serum to linear peptides of protein N of SARS-CoV Urbani (Rabbit serum linear peptides) / Binding of a rabbit serum to looped/cyclic peptides of protein N of SARS-CoV Urbani (Rabbit serum looped peptides): unit not given here

Row | Sequence | Binding of antibody 03-018 to linear peptides of the N protein of SARS-CoV Urbani [1] | Binding of antibody 03-018 to looped/cyclic peptides of the N protein of SARS-CoV Urbani [1] | Binding of serum 1a to linear peptides of protein N of SARS-CoV Urbani [3] | Binding of serum 1a to looped/cyclic peptides of protein N of SARS-CoV Urbani [3] | Binding of serum 1b to linear peptides of protein N of SARS-CoV Urbani [3] | Binding of serum 1b to looped/cyclic peptides of protein N of SARS-CoV Urbani [3] | Binding of serum 2 to linear peptides of protein N of SARS-CoV Urbani [3] | Binding of serum 2 to looped/cyclic peptides of protein N of SARS-CoV Urbani [3] | Binding of serum 6 to linear peptides of protein N of SARS-CoV Urbani [3] | Binding of serum 6 to looped/cyclic peptides of protein N of SARS-CoV Urbani [3] | Binding of serum 37 to linear peptides of protein N of SARS-CoV Urbani [3] | Binding of serum 37 to looped/cyclic peptides of protein N of SARS-CoV Urbani [3] | Binding of serum 62 to linear peptides of protein N of SARS-CoV Urbani [3] | Binding of serum 62 to looped/cyclic peptides of protein N of SARS-CoV Urbani [3] | Binding of serum London to linear peptides of protein N of SARS-CoV Urbani [3] | Binding of serum London to looped/cyclic peptides of protein N of SARS-CoV Urbani [3] | Binding of serum SARS-green to linear peptides of protein N of SARS-CoV Urbani [3] | Binding of serum SARS-green to looped/cyclic peptides of protein N of SARS-CoV Urbani [3] | Binding of serum SARS-yellow to linear peptides of protein N of SARS-CoV Urbani [3] | Binding of serum SARS-yellow to looped/cyclic peptides of protein N of SARS-CoV Urbani [3] | also measured
1 | WFTALTQHGKEELRF | 0.1 | 0.2 | 0.3 | 0.4 | 0.2 | 0.2 | 0.3 | 0.4 | 0.2 | 0.2 | 1.2 | 0.8 | 0.9 | 0.6 | 0.7 | 0.4 | 0.4 | 0.5 | 0.5 | 0.4 | Binding of Control Serum Blood-Bank to Looped peptides [2]: 0.6; Binding of Control serum Blood-bank to linear peptides [2]: 0.8; Binding of Control serum LUMC to linear peptides [2]: 0.7; Binding of Control serum LUMC to looped peptides [2]: 0.5; Binding of a rabbit serum to linear peptides of protein N of SARS-CoV Urbani (Rabbit serum linear peptides) [4]: 0.1; Binding of a rabbit serum to looped/cyclic peptides of protein N of SARS-CoV Urbani (Rabbit serum looped peptides) [4]: 0.3
2 | WLTYHGAIKLDDKDP | 0.1 | 0.2 | 0.3 | 0.2 | 0.2 | 0.1 | 0.2 | 0.2 | 0.2 | 0.1 | 0.7 | 0.4 | 0.8 | 0.3 | 0.6 | 0.3 | 0.3 | 0.0 | 0.7 | 0.2 | Control Serum Blood-Bank Looped peptides [2]: 0.4; Control serum Blood-bank linear peptides [2]: 0.8; Control serum LUMC linear peptides [2]: 0.7; Control serum LUMC looped peptides [2]: 0.4; Binding of a rabbit serum to linear peptides of protein N of SARS-CoV Urbani (Rabbit serum linear peptides) [4]: 0.2; Binding of a rabbit serum to looped/cyclic peptides of protein N of SARS-CoV Urbani (Rabbit serum looped peptides) [4]: 0.2
